This is an account of results in PubChem BioAssay (NCI).

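Tested at 5 concentrations; 48 h exposure; 96-well plates; endpoints linearly interpolated, else capped at highest concentration. TGI denotes the concentration required for complete inhibition of growth.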

Among the test systems are KM12 colon; M14 melanoma; MDA-MB-435; MOLT-4 leukemia; NCI-H23 lung; OVCAR-4 ovarian; OVCAR-5 ovarian; OVCAR-8 ovarian; SK-MEL-28 melanoma; SW-620 colon.
Holding throughout (test): NCI anticancer screen, dose series, 48 h

Take `C/C(=N\O)c1cccc[n+]1Cc1ccccc1`: the TGI with KM12 colon, with M14 melanoma, with MDA-MB-435, with MOLT-4 leukemia, with NCI-H23 lung and in the assay with OVCAR-4 ovarian was above 100 µM throughout. For the same compound, the TGI in the assay on OVCAR-5 ovarian, with OVCAR-8 ovarian, with SK-MEL-28 melanoma and with SW-620 colon was above 100 µM each time.
Consider `COc1ccccc1C(=O)NCC1CCCN2CCCCC12` (centres undefined), for which the TGI in the assay on KM12 colon, in the assay with M14 melanoma, in the assay with MDA-MB-435, in the assay with MOLT-4 leukemia, in the assay on NCI-H23 lung and in the assay with OVCAR-4 ovarian was above 100 µM in each case. Further, the TGI in the assay with OVCAR-5 ovarian, in the assay with OVCAR-8 ovarian, with SK-MEL-28 melanoma and with SW-620 colon was above 100 µM throughout.
Regarding `CNc1ncnc2c1nc(NC1CCCC1)n2C1OC(CO)C(O)C1O` (centres undefined), the TGI in the assay with KM12 colon, in the assay with M14 melanoma, with MDA-MB-435, in the assay on MOLT-4 leukemia, in the assay with NCI-H23 lung and in the assay on OVCAR-4 ovarian was above 100 µM throughout. Further, the TGI in the assay on OVCAR-5 ovarian, in the assay on OVCAR-8 ovarian, with SK-MEL-28 melanoma and in the assay with SW-620 colon was above 100 µM throughout.
As for `Cc1nc2sc(C(=O)c3ccc(Cl)cc3)c(N)c2c(-c2ccccc2Cl)c1C(=O)Nc1ccccc1`, the TGI was found to be 50 µM in the assay on KM12 colon; 25.8 µM in the assay with M14 melanoma; 33.1 µM in the assay with MDA-MB-435; 51.5 µM in the assay with MOLT-4 leukemia; 38.9 µM in the assay on NCI-H23 lung; 41 µM with OVCAR-4 ovarian. In addition, the TGI in the assay on OVCAR-5 ovarian turned out to be 38.6 µM; in the assay on OVCAR-8 ovarian, 47.1 µM; in the assay on SK-MEL-28 melanoma, 27.4 µM; in the assay with SW-620 colon, 29.4 µM.
In the case of `O=C1CSC(c2ccc(Cl)cc2Cl)N1c1ccc(Oc2ccc(Cl)cc2)c(Cl)c1` (centres undefined), the TGI in the assay on KM12 colon is 50.1 µM; in the assay with M14 melanoma, above 100 µM; with MDA-MB-435, 26.3 µM; in the assay on MOLT-4 leukemia, 81.5 µM; in the assay on NCI-H23 lung, 69.6 µM; with OVCAR-4 ovarian, 78.6 µM. Moreover, the TGI in the assay with OVCAR-5 ovarian, in the assay with OVCAR-8 ovarian, in the assay with SK-MEL-28 melanoma and in the assay with SW-620 colon was above 100 µM in each case.
Consider `COc1ccccc1C1(c2c(OC)c(=O)c2=O)SCCCS1`, for which the TGI with KM12 colon, with M14 melanoma, in the assay on MDA-MB-435, in the assay on MOLT-4 leukemia, in the assay on NCI-H23 lung and in the assay with OVCAR-4 ovarian was above 100 µM each time. The TGI in the assay with OVCAR-5 ovarian, with OVCAR-8 ovarian, in the assay on SK-MEL-28 melanoma and with SW-620 colon was above 100 µM in each case.
For the compound `O=C(/C(=C\I)c1ccccc1)c1ccccc1`, the TGI stood at 8.09 µM in the assay with KM12 colon; 30.5 µM with M14 melanoma; 26.5 µM with MDA-MB-435; 86.5 µM in the assay with MOLT-4 leukemia; 25.9 µM with NCI-H23 lung; 17.7 µM with OVCAR-4 ovarian. The TGI turned out to be 33.1 µM in the assay with OVCAR-5 ovarian, 14.6 µM with OVCAR-8 ovarian, 5.88 µM with SK-MEL-28 melanoma and 9.93 µM with SW-620 colon.
As to `COc1ccc(NCC(=O)Nn2c(-c3ccccc3)nc3ccccc3c2=O)cc1`, the TGI with KM12 colon, in the assay with M14 melanoma, in the assay with MDA-MB-435, in the assay with MOLT-4 leukemia, with NCI-H23 lung and with OVCAR-4 ovarian was above 100 µM throughout. In addition, the TGI in the assay with OVCAR-5 ovarian is above 100 µM; in the assay with OVCAR-8 ovarian it was above 100 µM; in the assay on SK-MEL-28 melanoma, above 100 µM; in the assay with SW-620 colon, 82.9 µM.
With `CCOC(=O)c1c(SC(=O)c2ccc(OC)cc2)n(-c2ccccc2)c(=S)n(-c2ccccc2)c1=O`, the TGI with KM12 colon was above 100 µM; in the assay on M14 melanoma, 83.2 µM; with MDA-MB-435 it was above 100 µM; with MOLT-4 leukemia, 64 µM; with NCI-H23 lung, above 100 µM; in the assay with OVCAR-4 ovarian, above 100 µM. Also, the TGI was above 100 µM in the assay with OVCAR-5 ovarian, 76.5 µM in the assay with OVCAR-8 ovarian, above 100 µM in the assay with SK-MEL-28 melanoma and 52.5 µM in the assay on SW-620 colon.
Take `O=C(Nc1ccc(S(=O)(=O)/N=c2\ncccn2C(=O)C(C(F)(F)F)C(F)(F)F)cc1)C(C(F)(F)F)C(F)(F)F`: the TGI in the assay on KM12 colon, in the assay with M14 melanoma, in the assay on MDA-MB-435, in the assay with MOLT-4 leukemia, in the assay on NCI-H23 lung and with OVCAR-4 ovarian was above 100 µM each time. In addition, the TGI with OVCAR-5 ovarian, with OVCAR-8 ovarian and with SK-MEL-28 melanoma was above 100 µM throughout.
As to `C=C(Cl)C(Cl)(CCl)CCC(Br)C(C)(C)Br` (centres undefined), the TGI in the assay with KM12 colon, in the assay with M14 melanoma, with MDA-MB-435, with MOLT-4 leukemia, in the assay with NCI-H23 lung and in the assay on OVCAR-4 ovarian was above 10 µM each time. Besides, the TGI in the assay with OVCAR-5 ovarian, with OVCAR-8 ovarian, in the assay with SK-MEL-28 melanoma and with SW-620 colon was above 10 µM throughout.
On to `O=C(O)[C@H](CCC[C@H]1C(=O)O[C@H](c2ccccc2)[C@H](c2ccccc2)N1C(=O)OCc1ccccc1)N[C@@H](c1ccccc1)[C@H](O)c1ccccc1`, for which the TGI in the assay with KM12 colon was 40.4 µM; in the assay on M14 melanoma it was above 100 µM; in the assay with MDA-MB-435, 40.8 µM; in the assay with MOLT-4 leukemia it was 62 µM; with NCI-H23 lung, 85.4 µM; in the assay on OVCAR-4 ovarian, 75.9 µM. Moreover, the TGI in the assay on OVCAR-5 ovarian is above 100 µM; in the assay with OVCAR-8 ovarian, 45.7 µM; in the assay with SK-MEL-28 melanoma it was 39 µM; in the assay with SW-620 colon, 68.5 µM.
As for `O=C1CSC(c2cccc(Cl)c2)N1c1ccc(-c2ccc(-n3c(-c4ccccc4)nc4ccccc4c3=O)cc2)cc1` (centres undefined), the TGI in the assay with KM12 colon, in the assay on M14 melanoma, with MDA-MB-435, in the assay on MOLT-4 leukemia, in the assay on NCI-H23 lung and in the assay with OVCAR-4 ovarian was above 100 µM throughout. In addition, the TGI in the assay with OVCAR-5 ovarian, with OVCAR-8 ovarian, in the assay on SK-MEL-28 melanoma and in the assay on SW-620 colon was above 100 µM in each case.
